Structures can show the parent of a compound that is named as a salt.
Columns and labels:
NHE3 [1] = biological target: T1, NHE3 (Homo sapiens, UniProt P48764); experiment: Cell-based assay of NHE-3 activity (pre-incubation inhibition), human; settings: human Preincubation
T1 construct: expressed in transfected cells
T1 sequence (P48764 26-834): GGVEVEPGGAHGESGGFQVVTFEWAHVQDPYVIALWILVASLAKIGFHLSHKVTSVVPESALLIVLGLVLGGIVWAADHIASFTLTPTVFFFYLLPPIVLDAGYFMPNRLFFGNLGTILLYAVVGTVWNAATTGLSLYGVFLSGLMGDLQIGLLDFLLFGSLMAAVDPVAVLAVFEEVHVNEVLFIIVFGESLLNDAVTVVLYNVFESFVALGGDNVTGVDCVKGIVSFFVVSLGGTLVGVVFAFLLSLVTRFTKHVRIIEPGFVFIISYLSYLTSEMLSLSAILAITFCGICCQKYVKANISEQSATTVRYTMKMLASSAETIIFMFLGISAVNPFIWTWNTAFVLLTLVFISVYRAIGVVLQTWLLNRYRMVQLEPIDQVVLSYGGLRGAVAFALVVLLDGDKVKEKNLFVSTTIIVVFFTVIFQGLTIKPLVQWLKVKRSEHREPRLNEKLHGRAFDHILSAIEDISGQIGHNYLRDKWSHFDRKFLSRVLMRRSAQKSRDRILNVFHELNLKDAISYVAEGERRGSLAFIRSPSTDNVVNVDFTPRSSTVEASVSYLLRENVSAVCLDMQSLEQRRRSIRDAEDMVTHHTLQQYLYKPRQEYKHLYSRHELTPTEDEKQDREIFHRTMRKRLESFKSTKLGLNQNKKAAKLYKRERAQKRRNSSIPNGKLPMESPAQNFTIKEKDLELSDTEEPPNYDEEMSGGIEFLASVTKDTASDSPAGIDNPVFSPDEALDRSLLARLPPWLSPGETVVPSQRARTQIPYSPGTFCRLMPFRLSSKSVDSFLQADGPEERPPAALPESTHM
T1 sequence (Q99653 2-195 partner limits assumed): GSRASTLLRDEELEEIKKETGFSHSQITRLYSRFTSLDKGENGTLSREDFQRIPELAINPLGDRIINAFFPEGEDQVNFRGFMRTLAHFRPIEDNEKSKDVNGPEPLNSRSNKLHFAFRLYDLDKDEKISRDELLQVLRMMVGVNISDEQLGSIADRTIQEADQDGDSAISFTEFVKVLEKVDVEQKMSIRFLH
Procedure: Rat and human NHE-3-mediated Na^+-dependent H^+ antiport was measured using a modification of the pH sensitive dye method originally reported by Paradiso (Proc. Natl. Acad. Sci. USA. (1984) 81(23): 7436-7440). PS120 fibroblasts stably expressing human NHE3 and NHERF2 were obtained from Mark Donowitz (Baltimore, Md.). Opossum kidney (OK) cells were obtained from the ATCC and propagated per their instructions. The rat NHE-3 gene (GenBank M85300) was introduced into OK cells via electroporation, and cells were seeded into 96 well plates and grown overnight. Medium was aspirated from the wells then incubated for 30 min at 37° C. with NH4Cl-HEPES buffer (20 mM NH4Cl, 80 mM NaCl, 50 mM HEPES, 5 mM KCl, 2 mM CaCl2, 1 mM MgCl2, pH 7.4) containing 5 μM BCECF-AM. Cells were washed once with Ammonium free, Na^+-free HEPES (100 mM choline, 50 mM HEPES, 10 mM glucose, 5 mM KCl, 2 mM CaCl2, 1 mM MgCl2, pH 7.4) and incubated in the same buffer for 10 minutes at room temperature to lower intracellular pH with 0-30 μM test compound. […] Changes in intracellular pH were monitored using a FLIPR Tetra® (Molecular Devices, Sunnyvale, Calif.) by excitation at λex 439 to 505 nm, and measuring BCECF fluorescence at λem 538 nm. The initial rate of the fluorescence ratio change was used as a measure of NHE-mediated Na^+/H^+ activity, and reported as the change in fluorescence ratio per minute.

NHE3 [2] = biological target: T1, NHE3; experiment: Cell-based assay of NHE-3 activity (persistent inhibition), human; settings: human Persistence, 60 min incubation then washout
Procedure: The ability of compounds to inhibit human and rat NHE-3-mediated Na^+ dependent H^+ antiport after application and washout was measured using a modification of the pH sensitive dye method described above. PS120 fibroblasts stably expressing human NHE3 and NHERF2 were obtained from Mark Donowitz (Baltimore, Md.). Opossum kidney (OK) cells were obtained from the ATCC and propagated per their instructions. The rat NHE-3 gene was introduced into OK cells via electroporation, and cells were seeded into 96 well plates and grown overnight. Medium was aspirated from the wells, cells were washed once with NaCl-HEPES buffer (100 mM NaCl, 50 mM HEPES, 10 mM glucose, 5 mM KCl, 2 mM CaCl2, 1 mM MgCl2, pH 7.4), then overlayed with NaCl-HEPES buffer containing 0-30 μM test compound. After a 60 min incubation at room temperature, the test drug containing buffer was aspirated from the cells. Following aspiration, cells were washed once with NaCl-HEPES buffer without drug, then incubated for 30 min at 37° C. with NH4Cl-HEPES buffer (20 mM NH4Cl, 80 mM NaCl, 50 mM HEPES, 5 mM KCl, 2 mM CaCl2, 1 mM MgCl2, pH 7.4) containing 5 μM BCECF-AM. Cells were washed once with Ammonium free, Na^+-free HEPES (100 mM choline, 50 mM HEPES, 10 mM glucose, 5 mM KCl, 2 mM CaCl2, 1 mM MgCl2, pH 7.4) and incubated in the same buffer for 10 minutes at room temperature to lower intracellular pH. NHE-3-mediated recovery of neutral intracellular pH was initiated (10 min after compound washout) by addition of Na-HEPES buffer. […] Changes in intracellular pH were monitored using a FLIPR Tetra® (Molecular Devices, Sunnyvale, Calif.) by excitation at λex 439 to 505 nm, and measuring BCECF fluorescence at λem 538 nm. The initial rate of the fluorescence ratio change was used as a measure of NHE-mediated Na^+/H^+ activity, and reported as the change in fluorescence ratio per minute.

Row | % inhibition (NHE3 [1]) | % inhibition (NHE3 [2]) | IC50 (NHE3 [2]) [nM] | IC50 (NHE3 [1]; 0-30 μM test compound) [nM] | SMILES | pIC50 (NHE3 [1]; 0-30 μM test compound) | pIC50 (NHE3 [2])
1 | C (>70%) | C (>70%) | – | – | N#Cc1cc(Cl)cc2c1C[C@H](N1CCNCC1)[C@H]2Oc1ccc(S(=O)(=O)NC2CCN(C(=O)CCCNC(=O)NCCCC(=O)N3CCC(NS(=O)(=O)c4ccc(O[C@H]5c6cc(Cl)cc(C#N)c6C[C@@H]5N5CCNCC5)cc4)CC3)CC2)cc1 [Example 154, 4-([(1S,2S)-6-Chloro-4-cyano-2-(piperazin-1-yl)-2,3-dihydro-1H-inden-1-yl]oxy)-N-[1-(4-[3-(4-[4-([4-([(1S,2S)-6-chloro-4-cyano-2-(piperazin-1-yl)-2,3-dihydro-1H-inden-1-yl]oxy)phenyl]sulfonamido)piperidin-1-yl]-4-oxobutyl)ureido]butanoyl)piperidin-4-yl]benzenesulfonamide] | C (NHE3 pIC50 > 7) | C (NHE3 pIC50 > 7)
2 | C (>70%) | C (>70%) | 100 to 1000 | – | Cc1cc(S(=O)(=O)NCCOCCOCCNC(=O)NCCCCNC(=O)NCCOCCOCCNS(=O)(=O)c2cc(C)c(O[C@H]3c4cc(Cl)cc(Cl)c4C[C@@H]3N3CCC[C@@H](N)C3)c(C)c2)cc(C)c1O[C@H]1c2cc(Cl)cc(Cl)c2C[C@@H]1N1CCC[C@@H](N)C1 [Example 79, 3-[2-(2-[2-[(4-[[(1S,2S)-2-[(3R)-3-Aminopiperidin-1-yl]-4,6-dichloro-2,3-dihydro-1H-inden-1-yl]oxy]-3,5-dimethylbenzene)sulfonamido]ethoxy]ethoxy)ethyl]-1-[4-([[2-(2-[2-[(4-[[(1S,2S)-2-[(3R)-3-aminopiperidin-1-yl]-4,6-dichloro-2,3-dihydro-1H-inden-1-yl]oxy]3,5-dimethylbenzene)sulfonamido]ethoxy]ethoxy)ethyl]carbamoyl]amino)butyl]urea; hydrochloride] | – | –
3 | C (>70%) | C (>70%) | < 100 | < 100 | N[C@@H]1CCCN([C@H]2Cc3c(Cl)cc(Cl)cc3[C@@H]2Oc2ccc(S(=O)(=O)N3CC[C@@H](OCCOCCNC(=O)NCCCCNC(=O)NCCOCCO[C@@H]4CCN(S(=O)(=O)c5ccc(O[C@H]6c7cc(Cl)cc(Cl)c7C[C@@H]6N6CCC[C@@H](N)C6)cc5)C4)C3)cc2)C1 [Example 93, 3-[2-(2-[[(3R)-1-[(4-[[(1S,2S)-2-[(3R)-3-Aminopiperidin-1-yl]-4,6-dichloro-2,3-dihydro-1H-inden-1-yl]oxy]benzene)sulfonyl]pyrrolidin-3-yl]oxy]ethoxy)ethyl]-1-[4-([[2-(2-[[(3R)-1-[(4-[[(1S,2S)-2-[(3R)-3-aminopiperidin-1-yl]-4,6-dichloro-2,3-dihydro-1H-inden-1-yl]oxy]benzene)sulfonyl]pyrrolidin-3-yl]oxy]ethoxy)ethyl]carbamoyl]amino)butyl]urea] | – | –

Row | SMILES | % inhibition (NHE3 [1]) | % inhibition (NHE3 [2]) | IC50 (NHE3 [2]) [nM] | IC50 (NHE3 [1]; 0-30 μM test compound) [nM] | pIC50 (NHE3 [1]; 0-30 μM test compound) | pIC50 (NHE3 [2])
4 | O=C(NCCCCNC(=O)NCCOCCOCCNS(=O)(=O)c1ccc(O[C@H]2c3cc(Cl)cc(Cl)c3C[C@@H]2N2C3CCCC2CCC3)cc1)NCCOCCOCCNS(=O)(=O)c1ccc(O[C@H]2c3cc(Cl)cc(Cl)c3C[C@@H]2N2C3CCCC2CCC3)cc1 [Example 71, 1-[2-(2-[2-[(4-[[(1S,2S)-2-[9-Azabicyclo[3.3.1]nonan-9-yl]-4,6-dichloro-2,3-dihydro-1H-inden-1-yl]oxy]benzene)sulfonamido]ethoxy]ethoxy)ethyl]-3-[4-([[2-(2-[2-[(4-[[(1S,2S)-2-[9-azabicyclo[3.3.1]nonan-9-yl]-4,6-dichloro-2,3-dihydro-1H-inden-1-yl]oxy]benzene)sulfonamido]ethoxy]ethoxy)ethyl]carbamoyl]amino)butyl]urea] | B (40-70%) | B (40-70%) | – | – | A (NHE3 pIC50 < 6) | A (NHE3 pIC50 < 6)

Reference: patent publication US11242337B2, “Compounds useful for treating gastrointestinal tract disorders” (Ardelyx, Inc., priority 2017, dated 2022)
